Legend:
TGF-β1 gene chromatin = test: DNase I sensitivity assay of TGF-β1 gene in SLE PBMCs; assay type: cell-based, human
Description: Because nuclease susceptibility is one of the characteristics of active chromatin, a DNase I sensitivity assay was used to examine chromatin conformation of the TGF-β1 gene in SLE PBMCs in the absence or presence of TSA. SLE PBMCs were treated with 1000 ng/ml of TSA for 18 hr, a treatment course shown previously to result in an optimal increase of TGF-β1 mRNA. Equal amounts of purified nuclei isolated from vehicle- or TSA-treated cells were exposed to increasing concentrations of DNase I (FIGS. 7A & 7B). Changes in DNase sensitivity were measured by a DNase I-PCR assay using 0.5 μg of DNA. As shown in the FIG. 7A, the cells treated with only vehicle were relatively resistant to DNase I digestion, even with use of higher concentrations of DNase I (0.25 μg/μl). In contrast, cells treated with TSA were digested in the lower concentration (0.025 μg/μl) of DNase I (FIG. 7B; lanes 3–6). […] There was no change in DNase I sensitivity at the G6PD gene promoter in vehicle- or TSA-treated SLE PBMCs (FIGS. 7A & 7B). Thus, it is likely that Trichostatin A increases DNase I sensitivity in the TGF-β1 gene of SLE PBMCs.

IFN-γ protein = IFN-γ protein production by SLE T cells (ELISA); assay type: cell-based, human; conditions: SLE T cells activated with PMA+IO 24 hr in presence of TSA; P=0.011
Description: To determine whether TSA could down-regulate IL-10, a dose-response analysis was performed. […] However, when SLE T cells were cultured in the presence of TSA for 18 hr, no detectable IL-10 transcripts were identified (FIG. 2C, lanes 3, 6, 9). When IL-10 transcripts from all eight SLE subjects were quantified relative to GAPDH transcripts, TSA inhibited expression of IL-10 mRNA by 71% (FIG. 2D; P=0.029). […] IL-10 and IFN-γ protein production were quantified by ELISA (R & D Systems, Minneapolis, Minn.). […] Thus, like CD154, TSA was able to block expression of IL-10 transcript, abolishing IL-10 production by SLE T cells.
When T cells were activated with PMA+IO for 24 hr, IFN-γ production increased about 24-fold. However, activation of T cells in the presence of TSA further enhanced IFN-γ output by >12-fold (P=0.011) (FIG. 3C).

TGF-β1 mRNA = test: PCR of TGF-β1 mRNA in SLE and control T cells / PBMCs; assay type: cell-based, human
Description: Gene expression of TGF-β1 was tested to determine if the gene expression is suppressed by deacetylation of histones in SLE. In this determination, SLE PBMCs or isolated T cells were treated with the histone deacetylase inhibitors (HDIs), TSA or SAHA, for 18hr. […] Subsequently, semi-quantitative PCR was performed to determine the amounts of […] transcripts in SLE and control T cells treated with vehicle or TSA (1000 ng/ml). […] There is no change in GAPDH transcript in normal and SLE T cells after treatment of HDIs. Increased TGF-β1 transcript was associated with a subsequent increase in TGF-β1 protein secretion by SLE PBMCs. When compared to vehicle treated PBMCs, total TGF-β1 protein in culture supernatants from SLE PBMCs increased by approximately 30%. In contrast, there was no increase in total TGF-β1 secretion in TSA treated cells in normal healthy controls. Similar results may be obtained by SAHA.

IL-10 protein = IL-10 protein secretion by MRL/lpr splenocytes; assay type: cell-based, mouse; conditions: MRL/lpr splenocytes stimulated by LPS, Con A, or LPS+IFN-γ, 72 hr
Excerpt: To determine the effect of TSA and SAHA on IL-10 protein secretion, MRL/lpr splenocytes were stimulated with Con A, LPS, or LPS+IFN-γ for 72 hr in the absence or presence of TSA or SAHA. As shown in the FIG. 11D, splenocytes stimulated with Con A, LPS, or LPS+IFN-γ secreted a mean (±SEM) of 31.8±4.5, 32.3±1.9, and 34.8±4.9 pg/ml, respectively, of IL-10 protein.

IFN-γ transcript = test: RT-PCR of IFN-γ transcript in SLE T cells; assay type: cell-based, human
Description: T cells were cultured in the absence or presence of increasing concentrations of TSA for 18 hr in 5% CO2 at 37° C. RNA was isolated, cDNAs were prepared, and RT-PCR was performed as previously detailed (D. Laxminarayana, et al., J. Clin. Invest. 92, 2207 (1993)). The primers used were: […]
The reaction mixtures were subjected to 30 cycles of denaturation (94° C., 1 min) and annealing for 1 min at 53° C. (CD154), […] (GAPDH) and 55° C. (IL-10 and IFN-γ). Extension was for 2 min at 72° C. with a final extension of 7 min at 72° C. using a DNA thermal cycler (Perkin-Elmer).
Low production of IFN-γ by SLE T cells may reflect down-regulation of gene expression (B. S. Handwerger, et al., in Lupus: Molecular and Cellular Pathogenesis, G. M. Kammer and G. C. Tsokos, Eds. (Humana Press, Totowa, N.J., 1999), chap. 21; E. Hagiwara, et al., Arthritis Rheum. 39, 379 (1996)). To establish whether TSA can up-regulate IFN-γ expression, SLE T cells were treated for 18 hr in the absence or presence of TSA. During that time, TSA induced a three-fold increase in IFN-γ transcript compared to untreated cells (FIG. 3A, lanes 1 and 7, and FIG. 3B). When T cells were activated with PMA+IO in the absence of TSA, peak IFN-γ transcript expression increased 13-fold at 1 hr over basal levels relative to GAPDH transcript, but waned thereafter. […]

## CC(/C=C/C(=O)NO)=C\[C@@H](C)C(=O)c1ccc(N(C)C)cc1 [TSA, Trichostatin A]
TGF-β1 gene chromatin; SLE PBMCs, 1000 ng/ml TSA, 18 hr
  increase in DNase I sensitivity, TGF-β1 promoter: three-fold
TGF-β1 gene chromatin; vehicle- or TSA-treated SLE PBMCs
  DNase I sensitivity at the G6PD gene promoter: no change
IFN-γ protein
  further enhancement of IFN-γ output: > 12 fold
TGF-β1 mRNA; SLE PBMCs exposed to TSA and SAHA (summary statement)
  increase in TGF-β1 transcript: eight-fold
TGF-β1 mRNA; SLE T cells, 1000 ng/ml TSA, 18 hr, real time PCR
  induction of TGF-β1 mRNA compared to vehicle treated cells: 8 fold
TGF-β1 mRNA; SLE T cells, TSA 1000 ng/ml
  TGF-β1 mRNA levels, semi-quantitative PCR: increased
TGF-β1 mRNA; SLE T cells, TSA concentrations to 500 ng/ml
  TGF-β1 mRNA change: modest increase
IL-10 protein
  IL-10 protein secretion: no detectable IL-10 secretion
IFN-γ transcript; SLE T cells activated with PMA+IO in presence of TSA, at 6 hr, P=0.031
  peak increase in IFN-γ mRNA over untreated cells relative to GAPDH: 37 fold
IFN-γ transcript; SLE T cells, TSA 18 hr, not activated
  increase in IFN-γ transcript compared to untreated cells: three-fold

Source: patent publication US7271198B2, “Method of treating autoimmune diseases” (Wake Forest University, priority 2000, dated 2007)
